From US12600931B2, “Microfluidic cell culture plate for air-liquid interface and 3D cultured tissue applications” (priority 2020, dated 2026)
“Also recorded” adds a separate entry of the source. Where a name gives a salt, the structure may show the parent alone. Read-outs that look alike come from different tables or passages of the source.

Key:
[1] = test system: A/WSN/33 strain of IAV; type: cell-based, influenza A virus
[2] = test system: A/Hong Kong/8/68 H3N2; type: cell-based, influenza A virus
[3] = test system: A/WSN/33 strain of IAV; type: cell-based, influenza A virus; remark: listed apart in the source
[4] = test system: A/Hong Kong/8/68 H3N2; type: cell-based, influenza A virus; remark: listed apart in the source
[5] = test system: HCoV-NL63 in Calu-3 cells; details: reported; cited from earlier work
[6] = test system: IAV in human primary bronchial epithelial cells; details: reported; cited from earlier work
[7] = test system: HCoV-NL63; type: cell-based; details: 20 μM CM vs untreated/vehicle, 48 and 96 h p.i., particularly MOI=0.005, qualitative, scatter limits statistical significance

CCC(CC)O[C@@H]1C=C(C(=O)O)C[C@H](N)[C@H]1NC(C)=O [oseltamivir, Oseltamivir carboxylate]
viral titers (qRT-PCR) [1]: reduction in viral titers | virus-induced disruption to barrier function and epithelial tight junction formation [2]: prevented virus-induced disruption to barrier function and epithelial tight junction formation | effect of oseltamivir on barrier function (TEER) [3]: protective effect on barrier function | influenza replication (viral copies, RT-qPCR) [4]: significantly reduced influenza replication | viral copies in apical wash in response to oseltamivir dose [4]: marked decrease in viral copies; also recorded: reduce viral copies

CN(C)C(=O)COC(=O)Cc1ccc(OC(=O)c2ccc(NC(=N)N)cc2)cc1 [camostat mesylate, Camostat mesylate]
infection by HCoV-NL63 in Calu-3 cells [5]: partially block infection | infection by IAV in human primary bronchial epithelial cells [6]: partially block infection | viral copy number (RT-qPCR, apical wash) [7]: observed reduction in viral copies | viral copy number (RT-qPCR, apical wash) ([7]; listed as CM): reduces viral copy number
